The record followed here is patent publication US4961920A, “Phototherapeutic monovinyl and divinyl ether-linked dimers” (Luminis Pty, Ltd., priority 1988, dated 1990).

For the test, the system named is Lewis lung carcinoma cells. Nature of the test: Photosensitization of tumors: days for Lewis lung carcinoma to regrow to palpable tumor in mice after red-light irradiation. The test is classed as in vivo. Particulars: 25-60 mg/kg, i.p. or i.v.; red light 24 h after dosing; groups of 10 C57BL mice; end point 5 out of 10 mice regrow palpable tumor. The text has this: Lewis lung carcinoma cells (Dr. L. Dent, Flinders Medical Centre), are transplanted into the back of C57BL mice by subcutaneous injection of approximately 10^6 cells per mouse. […] Twenty-four hours later mice are anesthetized, the fur over the tumor shaved, and a 1 cm diameter area over the tumor is irradiated with red light as specified. Mice are palpated daily for recurrence of tumor. The end point is the number of days for 5 out of 10 mice to regrow palpable tumor.
Light can be supplied by a gold metal vapor laser (Quentron Optica Pty. Ltd.) with wavelength 627.8 nm. This laser generates average light intensities of 400 mW coupled to a 400 um quartz fiber and can be positioned to create a 1 cm diameter spot.
Data were recorded as "TC50 "--the first time (in days) after treatment for the tumor to regrow to a palpable stage (as shown in Table 1).

Take “Divinyldeuteroporphyrin Ether-linked Dimer [(1) where both R = vinyl]”: the “TC50 (first time after treatment for the tumor to regrow to a palpable stage)” value was 7 days.
In the case of “Monohydroxyethyl Monovinyl Deuteroporphyrin Ether-linked Dimer”, the “TC50 (first time after treatment for the tumor to regrow to a palpable stage)” value is given as 3 days.
